Measured values as given in patent US20250161338A1, “Compounds for Anti-aging Intervention” (AGENCY FOR SCIENCE, TECHNOLOGY AND RESEARCH, priority 2022, published 2025).
“Also recorded” adds a separate entry of the source.

How the values were obtained:
Type in all cases: cell-based
[1] = tested on: wild-type Saccharomyces cerevisiae CEN.PK113-7D yeast strain; assay: Yeast cell growth (OD600) in SD medium; details: 0 to 8 mM; 24, 48 and 72 hours
Description: Yeast strain was recovered from frozen glycerol stock at 30° C. on YPD agar medium. Yeast was left to propagate in SD medium overnight at 30° C. with shaking at 220 revolutions per minute (rpm). Cells propagated overnight were diluted to a starting optical density at 600 nm (OD600) of approximately 0.2 in fresh SD medium to begin the chronological lifespan (CLS) experiments.
CLS experiments were performed in 96-well plates with 200 μL yeast culture. Cellular inoculums were transferred into 96-well plates containing serially double-diluted concentrations (0 to 10 nM) of rapamycin. Cellular inoculum was transferred into 96-well plates containing serially double-diluted concentrations (0 to 8 mM) of 2,5-anhydro-D-mannitol, D-fructose, D-mannitol, D-maltose, and D-sorbitol in SD medium. Cells were incubated at 30° C., and the growth was measured at different time points. The growth time point 72 hours was considered as Day 1 for the CLS assay. Cell survival was quantified at various age time points by three different approaches: (i) PI fluorescence-based method, (ii) outgrowth in YPD liquid medium, and (iii) spotting assay (FIG. 1).
Firstly, the effect of 2,5-AM on cell growth was determined. Yeast cells were incubated with varying concentrations of 2,5-AM in the SD medium. Cell growth was measured at different time points (24 hours, 48 hours, and 72 hours). […] Then, the survival of chronologically aged cells supplemented with different concentrations of 2,5-AM was measured using the PI fluorescence method. At each chronological age point, a 3 μL culture was transferred to a second 96-well plate containing 200 μL YPD medium. The 72-hour growth culture was considered Day 1 for the CLS analysis. The viability fraction was calculated, and a survival graph was plotted for different chronological age time points (FIG. 5). […] The survival of aged cells supplemented with 2,5-AM (4 mM and 8 mM) on Day 4 was approximately 80%. However, the survival of aged cells without 2,5-AM was approximately 50%. On Day 7, survival of 2,5-AM supplemented aged cells was approximately 75%. However, the survival of aged cells without 2,5-AM was reduced to less than 20%.
Firstly, the effect of fructose, mannitol, maltose, and sorbitol on cell growth was tested. Yeast cells were incubated with various concentrations of fructose, mannitol, maltose, and sorbitol similar to 2,5-AM in the SD medium. […] Next, the survival of chronologically aged cells on day 1, day 7, day 14, and day 21 was measured. […] Aged cells supplemented with 2,5-AM (8 mM) survived (approximately 65%) on Day 21. However, the survival of aged cells without 2,5-AM supplementation was less than 10%.

HEK293 cells = assay: CLS in human cells, propidium iodide fluorescence-based method (HEK293); details: sixth day after seeding
Description: (§1) Human embryonic kidney 293 (HEK293) cells (ATCC, Manassas, Virginia, United States of America), lung epithelial (A549) cells (ATCC, Manassas, Virginia, United States of America) and fibroblast (IMR90) cells (ATCC, Manassas, Virginia, United States of America) were cultured in the standard D10 medium, consisting of high-glucose DMEM (HyClone, Cytiva, Marlborough, Massachusetts, USA) supplemented with 10% Fetal Bovine Serum (FBS) (Gibco™, ThermoFisher Scientific, Waltham, Massachusetts, USA) and 1% Penicillin Streptomycin Solution (Gibco™, ThermoFisher Scientific, Waltham, Massachusetts, USA). All cells were cultured in a humidified incubator with 5% CO2 at 37° C.
The stock solution of rapamycin, hemin, 5-fluorouracil, atorvastatin, and methotrexate was prepared in DMSO, followed by serial dilution to form various concentrations used in the experiment. The final DMSO concentration was kept at 0.05% in all experiments. The stock solution of 2,5-anhydro-D-mannitol was prepared in D10 medium. The chemical library used in screening were tested at 1 μM concentrations. Controls used were the same as the solvent applied, DMSO or water.
The assay was performed by preparing the cells with PI (2 μg/mL or 5 μg/mL) in a D10 medium. […] At different age time points, reading was taken with a Synergy MX microplate reader (BioTek, Winooski, Vermont, United States) at 535 nm excitation and 617 nm emission.

HEK293 cell line = assay: CLS in human cells using crystal violet outgrowth assay; details: Day 4 culture (FIG. 18A); seven days of outgrowth
Description: as §1
80,000 cells were seeded in a 96-well culture plate with or without compound treatment. On Day 4, Day 6, and Day 8 after seeding, floating dead cells were aspirated with exhausted D10 medium. Then, attached cells were gently washed with 1×PBS to remove D10 medium residue and treated with 0.2 mL of 0.25% trypsin. Cells were gently mixed by pipetting and a 2% aliquot (4 μL) was transferred to 6-well experiment plates with fresh D10 medium. […]
In this approach, an outgrowth assay was used to determine the number of live cells in the 6-well experiment plate using crystal violet staining. […] These live cells were then stained with crystal violet dye and assessed qualitatively.

What does the source list for `OC[C@H]1O[C@H](CO)[C@@H](O)[C@@H]1O` [2,5-AM, 2,5-anhydro-D-mannitol]?
cell growth [1]: reached the same saturation level after 24 hours; also recorded: did not affect cell growth; more live cells compared to the untreated group (HEK293 cells; 2.5 mM): 34.39%; more live cells compared to the untreated group (HEK293 cells; 5 mM): 58.7%; cellular lifespan (crystal violet, qualitative) (HEK293 cell line): able to increase cellular lifespan
